In patent US20160009763A1, “PEPTIDE MOLECULAR MATERIALS” (National Chiao Tung University, priority 2014, published 2016):
Non-standard residues stand in square brackets, D forms with d. Residues, ends and D or L forms follow the SMILES beside them. ξ: configuration not given here. *: point of attachment. Phenylacetyl(2,3,4,5,6-F5) = O=C(Cc1c(F)c(F)c(F)c(F)c1F)*; Phenylacetyl(4-F) = O=C(Cc1ccc(F)cc1)*; Hydrocinnamoyl = O=C(CCc1ccccc1)*; Ile(3ξ) = CCC(C)[C@H](N)C(=O)O; PhAc = O=C(Cc1ccccc1)*; Bz = O=C(c1ccccc1)*

How the values were obtained:
Hela cell [1] = experiment: Wound healing assay, Hela cell; type: cell-based; conditions: medium with 1 wt % of hydrogel
Method: Various cells were washed with PBS (phosphate buffer) twice and were suspended in a T-75 tissue culture flask. 0.25% trypsin containing 0.1% EDTA was added and then the cells were re-suspended in 5 mL of complete medium. 30000 cells (in 3 mL of medium) were placed in each vial on a 6-well plate to form a fusion monolayer. […] 2 mL of PBS was used twice to remove the floating cells, and was then replaced with 3 mL of complete medium. The image taken at 0 hour was used as a reference point. […] The images at different hours were taken at an appropriate region. Control: no compound added.

[2] = Rheological test of hydrogels (angular frequency sweep); type: physicochemical; conditions: angular frequency sweep 0.1 to 100 rad/s, strain=0.8%, 25° C.
Method: In the present invention, Rheological test was performed by Anton Paar rheometer. MTT cell viability assay was performed by Sunrise absorbance microplate reader (DV990/BV4 GDV Programmable MPT reader).
Rheological tests of hydrogels were performed by Anton Paar rheometer. 25 mm parallel plate was used in the experimentation. 400 μL of hydrogels (A) to (R) were placed on the parallel plate. Angular frequency sweep test: measurement range (frequency 0.1 to 100 rad/s, strain=0.8%) is 13 points per 10 rounds. Sweep model is “logarithm (log)” and the operation temperature is 25° C.
In FIG. 3, G′ represents storage modulus, and G″ represents loss modulus. The higher G′ and G″ are, the better stability the hydrogel is.

[3] = Phase inversion temperature (Tgel-sol) test of hydrogels; type: physicochemical; conditions: heated 2° C./min until hydrogel began to flow
Method: Hydrogels (A) to (R) were obliquely placed in water bath while a beaker including water and a thermometer was also placed in the water bath. The hydrogels were heated (2° C./min) until such hydrogels began to flow (the gel phase was changed to the sol phase). The inversion temperatures when the hydrogels began to flow were recorded, and such temperatures were the phase inversion temperatures of hydrogels.

CTX TNA2 cell [4] = experiment: Wound healing assay, CTX TNA2 cell; type: cell-based; conditions: medium with 1 wt % of hydrogel, versus Control
Method: Various cells were washed with PBS (phosphate buffer) twice and were suspended in a T-75 tissue culture flask. 0.25% trypsin containing 0.1% EDTA was added and then the cells were re-suspended in 5 mL of complete medium. 30000 cells (in 3 mL of medium) were placed in each vial on a 6-well plate to form a fusion monolayer. After the adhesion for 24 hours, the cell monolayer was scratched by a p200 pipet tip to create a wound. 2 mL of PBS was used twice to remove the floating cells, and was then replaced with 3 mL of complete medium. The image taken at 0 hour was used as a reference point. The medium was replaced with 3 mL of medium containing 1 wt % of hydrogel and the plate was incubated at 37° C. and 5% CO2 for 24 hours. The images at different hours were taken at an appropriate region. Control: no compound added.

[5] = MTT cell viability assay, CTX TNA2 cell; type: cell-based; conditions: rat, CTX TNA2 cells, hydrogel up to 500 μM
Method: (§1) The bio-compatibility of the hydrogels prepared from the different peptide materials was measured by MTT cell viability assay.
(§2) MTT cell viability assay was performed by Sunrise absorbance microplate reader (DV990/BV4 GDV Programmable MPT reader). Various cells were seeded in a 24-well plate containing 0.5 mL medium (DMEM) with 10% fetal bovine serum (FBS) and 1% penicillin. In each well, the cell concentration was 50000 cells and cells were cultured for 24 hours. After seeding the cells, hydrogels with the different concentrations ([…]) were added. The medium in each well was replaced with the flesh medium containing 0.5 mL of MTT reagent (4 mg mL^−1) after 24 and 48 hours. After an additional 4 hours, the medium containing MTT reagent was removed and DMSO (0.5 mL/well) was added to dissolve formazan crystals. The cells in the 24-well plate were transferred to a 96-well plate. The optical densities of such obtained solutions were measured at 595 nm by Sunrise absorbance microplate reader (DV990/BV4 GDV Programmable MPT reader).
(§3) The untreated cells were used as a comparative example. The cell viability was calculated based on the following equation:
(§4) Cell viability(%)=ODsample/ODcomparative example

CTX TNA2 cell [6] = experiment: MTT cell viability assay, CTX TNA2 cell; type: cell-based; conditions: read-out: IC50 inhibition concentration
Method: as §1, §2, §3, §4

Hela cell [7] = experiment: MTT cell viability assay, Hela cell; type: cell-based; conditions: Homo sapiens, read-out: IC50 inhibition concentration
Method: as §1, §2, §3, §4

[8] = MTT cell viability assay, Hela cell; type: cell-based; conditions: human, HeLa cells, hydrogel up to 500 μM
Method: as §1, §2, §3, §4

MCF-7 cell = experiment: MTT cell viability assay, MCF-7 cell; type: cell-based; conditions: Homo sapiens, MCF7, read-out: IC50 inhibition concentration
Method: as §1, §2, §3, §4

[9] = MTT cell viability assay, MCF-7 cell; type: cell-based; conditions: human, MCF-7 cells, hydrogel up to 500 μM
Method: as §1, §2, §3, §4

[10] = State of hydrogels at 37° C. and 4° C. (TEM images); type: physicochemical
Method: The material, technique and general process in the present invention are suitable for the following examples. All used chemical reagents and solutions can be obtained from suppliers. ^1H and ^13C spectrums were measured by Bruker DRX-300. LC-MS was measured by MICROMASS Q-Tof. TEM was measured by Hitachi HT7700 Bio-transmission electron microscope.

Row | SMILES | storage modulus (G′) [2] | phase inversion temperature Tgel-sol [3] | other results
1 | O=C(Cc1c(F)c(F)c(F)c(F)c1F)N[C@@H](Cc1ccccc1)C(=O)O [hydrogel (A), PFB-Phe] | 2×10^3 Pa | 56 °C | wound healing after 48 hours (Hela cell [1]): healed completely
2 | O=C(O)CNC(=O)[C@H](Cc1ccccc1)NC(=O)Cc1c(F)c(F)c(F)c(F)c1F [hydrogel (B), PFB-Phe-Gly] | 10^4 Pa | 48 °C | wound healing after 48 hours (Hela cell [1]): healed completely
3 | O=C(Cc1c(F)c(F)c(F)c(F)c1F)N[C@@H](Cc1ccc(O)cc1)C(=O)N[C@@H](Cc1ccccc1)C(=O)O [hydrogel (C), PFB-Tyr-Phe] | 5×10^3 Pa | 43 °C | wound healing after 48 hours (Hela cell [1]): healed completely; healing effect (CTX TNA2 cell [4]): better than that of Control; viability [5]: ~100%; IC50 (CTX TNA2 cell [6]): > 500 µM; IC50 (Hela cell [7]): > 500 µM; viability [8]: ~100%; IC50 (MCF-7 cell): > 500 µM; viability [9]: ~100%
4 | O=C(Cc1c(F)c(F)c(F)c(F)c1F)N[C@@H](Cc1ccccc1)C(=O)N[C@@H](Cc1ccccc1)C(=O)O [hydrogel (D), PFB-Phe-Phe] | 2×10^4 Pa | 45 °C | –
5 | C[C@H](NC(=O)[C@H](Cc1ccccc1)NC(=O)Cc1c(F)c(F)c(F)c(F)c1F)C(=O)O [hydrogel (E), PFB-Phe-Ala] | 4×10^3 Pa | 48 °C | wound healing after 48 hours (Hela cell [1]): healed completely
6 | CC(C)[C@H](NC(=O)[C@H](Cc1ccccc1)NC(=O)Cc1c(F)c(F)c(F)c(F)c1F)C(=O)O [hydrogel (F), PFB-Phe-Val] | 3×10^3 Pa | 46 °C | wound healing after 48 hours (Hela cell [1]): healed completely
7 | CC(C)[C@H](NC(=O)Cc1c(F)c(F)c(F)c(F)c1F)C(=O)N[C@@H](Cc1ccccc1)C(=O)O [hydrogel (G), PFB-Val-Phe] | 6×10^4 Pa | 72 °C | –
8 | CCC(C)[C@H](NC(=O)Cc1c(F)c(F)c(F)c(F)c1F)C(=O)N[C@@H](Cc1ccccc1)C(=O)O (stereo partly shown) [hydrogel (H), PFB-Ile-Phe] | 1×10^4 Pa | 71 °C | –
9 | CC(C)C[C@H](NC(=O)Cc1c(F)c(F)c(F)c(F)c1F)C(=O)N[C@@H](Cc1ccccc1)C(=O)O [hydrogel (I), PFB-Leu-Phe] | 2×10^3 Pa | 55 °C | state of hydrogel at 4° C. [10]: liquid; state of hydrogel at 37° C. [10]: colloidal state
10 | CC(C)C[C@@H](NC(=O)Cc1c(F)c(F)c(F)c(F)c1F)C(=O)N[C@H](Cc1ccccc1)C(=O)O [hydrogel (J), PFB-D-L-D-F] | 7×10^2 Pa | 69 °C | –
11 | O=C(Cc1ccc(F)cc1)N[C@@H](Cc1ccccc1)C(=O)N[C@@H](Cc1ccccc1)C(=O)O [hydrogel (K), 4-Fluorobenzyl-Phe-Phe] | 6×10^3 Pa | 46 °C | –
12 | O=C(Cc1c(F)c(F)c(F)c(F)c1F)NCC(=O)N[C@@H](Cc1ccccc1)C(=O)N[C@@H](Cc1ccccc1)C(=O)O [hydrogel (L), PFB-Gly-Phe-Phe] | 4×10^2 Pa | 38 °C | state of hydrogel at 4° C. [10]: liquid; state of hydrogel at 37° C. [10]: colloidal state
13 | CCC(C)[C@H](NC(=O)Cc1c(F)c(F)c(F)c(F)c1F)C(=O)N[C@@H](CCCCN)C(=O)N[C@H](C(=O)N[C@@H](C)C(=O)N[C@H](C(=O)O)C(C)C)C(C)C (stereo partly drawn) [hydrogel (M), PFB-Ile-Lys-Val-Ala-Val] ({Phenylacetyl(2,3,4,5,6-F5)}-[Ile(3ξ)]KVAV-OH) | 1×10^3 Pa | 42 °C | –
14 | CCC(C)[C@H](NC(=O)Cc1ccc(F)cc1)C(=O)N[C@@H](CCCCN)C(=O)N[C@H](C(=O)N[C@@H](C)C(=O)N[C@H](C(=O)O)C(C)C)C(C)C (stereo partly drawn) [hydrogel (N), 4-Fluorophenylacetic Acid-Ile-Lys-Val-Ala-Val] ({Phenylacetyl(4-F)}-[Ile(3ξ)]KVAV-OH) | 1×10^4 Pa | 66 °C | –
15 | CCC(C)[C@H](NC(=O)c1ccccc1)C(=O)N[C@@H](CCCCN)C(=O)N[C@H](C(=O)N[C@@H](C)C(=O)N[C@H](C(=O)O)C(C)C)C(C)C (stereo partly drawn) [hydrogel (O), Benzoic Acid-Ile-Lys-Val-Ala-Val] (Bz-[Ile(3ξ)]KVAV-OH) | 6×10^3 Pa | 62 °C | –
16 | CCC(C)[C@H](NC(=O)Cc1ccccc1)C(=O)N[C@@H](CCCCN)C(=O)N[C@H](C(=O)N[C@@H](C)C(=O)N[C@H](C(=O)O)C(C)C)C(C)C (stereo partly drawn) [hydrogel (P), Phenylacetic Acid-Ile-Lys-Val-Ala-Val] (PhAc-[Ile(3ξ)]KVAV-OH) | 6×10^3 Pa | 65 °C | –
17 | CCC(C)[C@H](NC(=O)CCc1ccccc1)C(=O)N[C@@H](CCCCN)C(=O)N[C@H](C(=O)N[C@@H](C)C(=O)N[C@H](C(=O)O)C(C)C)C(C)C (stereo partly drawn) [hydrogel (Q), 3-Phenylpropionic Acid-Ile-Lys-Val-Ala-Val] (Hydrocinnamoyl-[Ile(3ξ)]KVAV-OH) | 1×10^4 Pa | > 90 °C | –
18 | CCC(C)[C@H](NC(=O)[C@H](Cc1ccccc1)NC(=O)Cc1c(F)c(F)c(F)c(F)c1F)C(=O)N[C@@H](CCCCN)C(=O)N[C@H](C(=O)N[C@@H](C)C(=O)N[C@H](C(=O)O)C(C)C)C(C)C (stereo partly drawn) [hydrogel (R), PFB-Phe-Ile-Lys-Val-Ala-Val] ({Phenylacetyl(2,3,4,5,6-F5)}-F[Ile(3ξ)]KVAV-OH) | 1.0×10^3 Pa | 40 °C | –
